Assay results from patent publication US20040010038A1, “Propargylamino indan derivatives and propargylamino tetralin derivatives as brain-selective MAO inhibitors” (priority 2002, published 2004).
Counter-ions that a name gives are not always drawn. Like-named read-outs stand apart in the source and are kept apart here.

Columns and labels:
MAO-A [1] = target: T1, MAO-A (Rattus norvegicus, UniProt P21396); assay: Inhibition of MAO activity in vitro (5-HT as substrate); assay type: biochemical
T1 construct: The MAO enzyme source was a homogenate of rat brain in 0.3 M sucrose 1:20 w/v; from tissue; host or cells: rat brain homogenate
T1 sequence (P21396 1-526): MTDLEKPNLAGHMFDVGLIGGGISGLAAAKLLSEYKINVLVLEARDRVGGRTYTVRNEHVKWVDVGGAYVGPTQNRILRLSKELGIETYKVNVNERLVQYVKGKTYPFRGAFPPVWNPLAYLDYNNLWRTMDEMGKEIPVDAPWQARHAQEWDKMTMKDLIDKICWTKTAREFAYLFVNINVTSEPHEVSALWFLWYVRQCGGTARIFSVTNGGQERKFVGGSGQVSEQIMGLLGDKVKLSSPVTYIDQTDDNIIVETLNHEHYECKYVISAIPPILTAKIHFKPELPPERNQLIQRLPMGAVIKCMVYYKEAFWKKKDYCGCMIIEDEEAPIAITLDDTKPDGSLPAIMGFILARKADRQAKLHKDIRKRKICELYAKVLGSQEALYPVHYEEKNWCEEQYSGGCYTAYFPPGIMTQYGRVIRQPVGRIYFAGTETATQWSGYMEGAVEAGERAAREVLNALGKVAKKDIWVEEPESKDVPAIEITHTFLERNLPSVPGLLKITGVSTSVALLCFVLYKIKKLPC
Protocol: (§1) Inhibition of MAO Activity In Vitro Experimental Protocol
(§2) The reaction was then stopped by addition of citric acid. Radioactivity indicates the production of 5-HT and PEA metabolites formed as a result of MAO activity.
(§3) A mixture of toluene: ethyl acetate (1:1) was added to the reaction and mixed for 10 minutes, followed by 5 minutes of centrifugation at 1760 g. The upper phase was taken for radioactive determination by liquid scintillation spectrometry.

MAO-B [2] = target: T2, MAO-B (Rattus norvegicus, UniProt P19643); assay: Inhibition of MAO activity in vitro (PEA as substrate); assay type: biochemical
T2 construct: The MAO enzyme source was a homogenate of rat brain in 0.3 M sucrose 1:20 w/v; from tissue; host or cells: rat brain homogenate
T2 sequence (P19643 1-520): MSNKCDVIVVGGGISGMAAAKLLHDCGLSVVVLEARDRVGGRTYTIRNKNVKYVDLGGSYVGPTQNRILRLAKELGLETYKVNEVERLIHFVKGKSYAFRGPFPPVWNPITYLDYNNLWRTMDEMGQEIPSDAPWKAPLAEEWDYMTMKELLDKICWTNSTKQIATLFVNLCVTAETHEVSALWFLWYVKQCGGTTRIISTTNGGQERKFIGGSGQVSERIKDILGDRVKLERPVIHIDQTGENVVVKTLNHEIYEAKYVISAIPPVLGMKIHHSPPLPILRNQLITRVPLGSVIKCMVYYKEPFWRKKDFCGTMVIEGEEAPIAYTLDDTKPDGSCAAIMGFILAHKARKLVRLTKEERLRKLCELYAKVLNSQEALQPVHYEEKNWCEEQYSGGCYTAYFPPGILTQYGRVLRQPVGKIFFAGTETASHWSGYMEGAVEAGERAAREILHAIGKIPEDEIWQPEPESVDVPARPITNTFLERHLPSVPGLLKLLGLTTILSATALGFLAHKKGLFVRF
Protocol: as §1, §2, §3

MAO-B [3] = target: T2, MAO-B; assay: Inhibition of MAO activity in vivo, MAO-B
Protocol: (§4) Inhibition of MAO Activity In Vivo: Chronic Treatment Experimental Protocol
(§5) Rats were treated with the test compounds (Table 5) at several dose levels by oral administration, one dose daily for 7-21 days, and decapitated 2 hours after the last dose. The activities of MAO-A and MAO-B were determined in the brain, liver and intestine as described in the previous example. Inhibition of MAO activity was calculated by dividing MAO activity in the treated rats by MAO activity in the control rats (saline treated, MAO activity in these rats was taken as 100%).
as §3

MAO-A [4] = target: T1, MAO-A; assay: Inhibition of MAO activity in vivo, MAO-A
Protocol: as §4, §5, §3

MAO-B [5] = target: T2, MAO-B; assay: Inhibition of MAO activity in vivo, MAO-B; details: tissue not stated; for inhibition at 10 µmol/kg: 10 μmol/kg (3.2-4 mg/kg), acute
MAO-A [6] = target: T1, MAO-A; assay: Inhibition of MAO activity in vivo, MAO-A; details: tissue not stated; for inhibition at 10 µmol/kg: 10 μmol/kg (3.2-4 mg/kg), acute
[7] = rat brain homogenate, 60 min pre-incubation at 37° C., 14C 5-HT substrate, read-out: In vitro IC50 A
[8] = rat brain homogenate, 60 min pre-incubation at 37° C., 14C PEA substrate, read-out: In vitro IC50 B
[9] = oral, 1 mg/kg (2.9 μmol/kg), 7 days, tissue not stated
[10] = oral, 15 mg/kg (44 μmol/kg), 7 days, tissue not stated
[11] = oral, 150 μmol/kg, 7 days, tissue not stated

| Compound | IC50 (MAO-A [1]; [7]) | IC50 (MAO-B [2]; [8]) | other results |
| --- | --- | --- | --- |
| C#CCN(C)C1CCc2ccc(O)cc21 (racemic) [Cmpd 112, 3-(Methyl-Prop-2-Ynyl Amino)-5-Indanol] | 0.03 µM | 0.01 µM |  |
| C#CCN(C)C1CCc2c(O)cccc21 (racemic) [Cmpd 117, 1-(methyl-prop-2-ynylamino)-4-indanol] | 0.0083 µM | 0.07 µM |  |
| C#CCN(C)C1CCc2cccc(O)c21 (racemic) [Cmpd 118, 3-(methyl-prop-2-ynylamino)-4-indanol] | 0.07 µM |  | IC50 (MAO-B [2]): 0.05 µM |
| C#CCN(C)C1CCc2c(OC(C)=O)cccc21 (racemic) [Cmpd 119] | 0.018 µM | 0.11 µM |  |
| C#CCN(C)C1CCc2c(OC(=O)c3ccccc3)cccc21 (racemic) [Cmpd 120] | 0.13 µM | 0.91 µM |  |
| C#CCN(C)C1CCc2c(OC(=O)c3c(OC)cccc3OC)cccc21 (racemic) [Cmpd 121] | 0.34 µM | 3 µM |  |
| C#CCN(C)C1CCc2ccc(O)cc2C1 (racemic) [Cmpd 123, 7-(methyl-prop-2-ynylamino)-2-tetralinol] | 0.41 µM | 0.48 µM |  |
| C#CCN(C)C1CCc2ccc(OC(=O)c3ccccc3)cc2C1 (racemic) [Cmpd 124, 7-O-benzoyl-2-(methyl-prop-2-ynylamino)-tetralin Hcl] | 1.2 µM | 1.2 µM |  |
| C#CCN(C)C1CCc2cc(OC(=O)c3ccccc3)c(OC(=O)c3ccccc3)cc21 (racemic) [Cmpd 137, 5,6-Di-O-Benzoyl-1-(Methyl-Prop-2-Ynyl-Amino)-Indan HCl] | 1.4 µM | 21 µM |  |
| C#CCN(C)C1CCc2cc(OC(=O)c3ccccc3)c(OC(=O)c3ccccc3)cc2C1 (racemic) [Cmpd 138, 6,7-di-O-benzoyl-2-(methyl-prop-2-ynylamino)-tetralin HCl] | 1.2 µM | 0.4 µM |  |
| C#CCN[C@@H]1CCc2ccc(O)cc21 [Cmpd 101, (R)-3-prop-2-ynylamino-5-indanol mesylate] |  |  | inhibition at 5 mg/kg (MAO-B [3]; po, read-out: % inhibition B): 47%; inhibition at 25 mg/kg (MAO-B [3]; po, read-out: % inhibition B): 65%; inhibition at 5 mg/kg (MAO-A [4]; po, read-out: % inhibition A): 35%; inhibition at 25 mg/kg (MAO-A [4]; po, read-out: % inhibition A): 57% |
| C#CCN(C)[C@H]1CCc2ccc(O)cc21 [Cmpd 113, (S)3-(methyl-prop-2-ynylamino)-5-indanol] | 12 µM | 23 µM |  |
| C#CCN(C)[C@@H]1CCc2ccc(O)cc21 [Cmpd 114, (R)3-(methyl-prop-2-ynylamino)-5-indanol] | 0.01 µM | 0.03 µM |  |
| C#CCN(C)[C@@H]1CCc2ccc(OC(C)=O)cc21 [Cmpd 116] | 0.035 µM | 0.0056 µM |  |
| C#CCN(C)[C@@H]1CCc2ccc(OC(=O)CCCC)cc21 [Cmpd 126] | 0.058 µM | 0.13 µM |  |
| C#CCN(C)[C@H]1CCc2ccc(OC(=O)c3ccccc3)cc21 [Cmpd 127, Benzoic Acid (S)-3-(Methyl-Prop-2-Ynyl-Amino)-Indan-5-Yl Ester HCl] | 3.8 µM | 5.6 µM |  |

| Compound | IC50 (MAO-A [1]; [7]) | IC50 (MAO-B [2]; [8]) | other results |
| --- | --- | --- | --- |
| C#CCN(C)[C@@H]1CCc2ccc(OC(=O)c3ccccc3)cc21 [Cmpd 128] | 0.2 µM | 1 µM | inhibition at 1 mg/kg (MAO-B [3]; [9]): 77%; inhibition at 5 mg/kg (MAO-B [3]; oral, 5 mg/kg (15 μmol/kg), 7 days, tissue not stated, read-out: % inhibition B): 91%; inhibition at 15 mg/kg (MAO-B [3]; [10]): 91%; inhibition at 1 mg/kg (MAO-A [4]; [9]): 87%; inhibition at 5 mg/kg (MAO-A [4]; oral, 5 mg/kg (15 μmol/kg), 7 days, tissue not stated, read-out: % inhibition A): 95%; inhibition at 15 mg/kg (MAO-A [4]; [10]): 98% |
| C#CCN(C)[C@H]1CCc2ccc(OC(=O)C(C)(C)C)cc21 [Cmpd 129] | 2.5 µM | 17 µM |  |
| C#CCN(C)[C@@H]1CCc2ccc(OC(=O)C(C)(C)C)cc21 [Cmpd 130] | 0.56 µM | 2.5 µM | inhibition at 10 µmol/kg (MAO-B [5]): 22%; inhibition at 10 µmol/kg (MAO-A [6]): 24% |
| C#CCN(C)[C@@H]1CCc2ccc(OC(=O)c3ccccc3C)cc21 [Cmpd 132] | 1.1 µM | 9.9 µM | inhibition at 10 µmol/kg (MAO-B [5]): 37%; inhibition at 10 µmol/kg (MAO-A [6]): 41% |
| C#CCN(C)[C@@H]1CCc2ccc(OC(=O)c3c(OC)cccc3OC)cc21 [Cmpd 134] | 1.2 µM | 5.9 µM | inhibition at 10 µmol/kg (MAO-B [5]): 0%; inhibition at 10 µmol/kg (MAO-A [6]): 9% |
| C#CCN(C)C1CCc2cc(O)c(O)cc2C1 (centres unmarked) [Cmpd 139, 6-(methyl-prop-2-ynylamino)-2,3-tetralindiol] | 4.5 µM | 41 µM |  |
| C#CCN(C)[C@@H]1CCc2ccc(OC(=O)N(C)CC)cc21 [Cmpd 140] |  | 12 µM | IC50 (MAO-A [1]): 4.3 µM; inhibition at 2 µmol/kg (MAO-B [3]; po, read-out: % inhibition B): 10%; inhibition at 10 µmol/kg (MAO-B [3]; po, read-out: % inhibition B): 30%; inhibition at 50 µmol/kg (MAO-B [3]; po, read-out: % inhibition B): 73%; inhibition at 2 µmol/kg (MAO-A [4]; po, read-out: % inhibition A): 6%; inhibition at 10 µmol/kg (MAO-A [4]; po, read-out: % inhibition A): 51%; inhibition at 50 µmol/kg (MAO-A [4]; po, read-out: % inhibition A): 65% |
| C#CCN(C)C1CCc2cccc(OC(=O)N(C)CC)c21 (centres unmarked) [Cmpd 141] | 65 µM | 100 µM |  |
| C#CCN(C)C1CCc2c(OC(=O)N(C)CC)cccc21 (centres unmarked) [Cmpd 142] | 0.027 µM | 4 µM |  |
| C#CCN(C)C1CCc2ccc(OC(=O)N(C)CCC)cc21 (centres unmarked) [Cmpd 143] | 5.6 µM | 9.2 µM |  |
| C#CCN(C)C1CCc2cccc(OC(=O)N(C)CCC)c21 (centres unmarked) [Cmpd 144] | 71 µM | 63 µM |  |
| C#CCN[C@@H]1CCc2ccc(OC(=O)N(C)CC)cc21 [Cmpd 146] |  |  | IC50 (MAO-A [1]; read-out: In vitro IC50 A): 300 µM; inhibition at 50 µmol/kg (MAO-B [3]; oral, 50 μmol/kg, 7 days, tissue not stated, read-out: % inhibition B): 52%; inhibition at 150 µmol/kg (MAO-B [3]; [11]): 87%; inhibition at 100 µmol/kg (MAO-B [5]; oral, 100 μmol/kg, 5 days): 74%; inhibition at 50 µmol/kg (MAO-A [4]; oral, 50 μmol/kg, 7 days, tissue not stated, read-out: % inhibition A): 46%; inhibition at 150 µmol/kg (MAO-A [4]; [11]): 74%; inhibition at 100 µmol/kg (MAO-A [6]; oral, 100 μmol/kg, 5 days): 56% |
| C#CCN[C@@H]1CCc2ccc(OC(=O)N(C)CC)cc21 [Cmpd 147] | 550 µM | > 1000 µM |  |
| C#CCNC1CCCc2ccc(OC(=O)N(C)CC)cc21 (centres unmarked) [Cmpd 148] | 500 µM | 100 µM |  |
| C#CCNC1CCc2ccc(OC(=O)N(C)CC)cc2C1 (centres unmarked) [Cmpd 149] | 2 µM | 100 µM |  |
| (S)-3-prop-2-ynylamino-5-indanol mesylate [Cmpd 100] | 500 µM | 300 µM |  |
